# pIC50: −log10 of the molar value. Activity calls are given as the source filed them. No cut-off for these calls is given here.
# How the values were obtained:
# Mus musculus [1] = assay: Anti-fibrotic effect in bile duct ligation (BDL) surgery-induced hepatic fibrosis C57BL/6 mouse model assessed as decrease in inflammatory cell infiltration at 500 ug/kg, po five times a week for 2 weeks by Masson's Trichrome staining based assay; format: functional, organism-based; conditions: dose 500.0 µg/kg
# Mus musculus [2] = assay: Anti-fibrotic effect in bile duct ligation (BDL) surgery-induced hepatic fibrosis C57BL/6 mouse model assessed as inhibition of collagen deposition in liver at 500 ug/kg, po five times a week for 2 weeks by Hematoxylin-Eosin (H&E) staining based assay; format: functional, organism-based; conditions: dose 500.0 µg/kg
# Mus musculus [3] = assay: Anti-fibrotic effect in bile duct ligation (BDL) surgery-induced hepatic fibrosis C57BL/6 mouse model assessed as inhibition of Ctgf expression in liver at 500 ug/kg, po five times a week for 2 weeks by RT-qPCR analysis; format: functional, organism-based; conditions: dose 500.0 µg/kg
# Mus musculus [4] = assay: Anti-fibrotic effect in improving CCl4-induced hepatic fibrosis C57BL/6 mouse model assessed as inhibition of fibronectin (Fn) expression in liver at 500 ug/kg, po five times a week for 2 weeks by RT-qPCR analysis; format: functional, organism-based; conditions: dose 500.0 µg/kg
# Mus musculus [5] = assay: Anti-fibrotic effect in improving CCl4-induced hepatic fibrosis C57BL/6 mouse model assessed as inhibition of Ctgf expression in liver at 500 ug/kg, po five times a week for 2 weeks by RT-qPCR analysis; format: functional, organism-based; conditions: dose 500.0 µg/kg
# Mus musculus [6] = assay: Anti-fibrotic effect in CCl4-induced hepatic fibrosis C57BL/6 mouse model assessed as inhibition of serum total bile acid (TBA) level at 500 ug/kg, po five times a week for 2 weeks; format: functional, organism-based; conditions: dose 500.0 µg/kg
# [7] = Toxicity in bile duct ligation (BDL) surgery-induced hepatic fibrosis C57BL/6 mouse model assessed as serum hypercalcemia at 500 ug/kg, po five times a week for 2 weeks by calcium assay kit; format: organism-based; conditions: in vivo, 0.5 mg/kg, 336 h, dose 500 µg/kg
# Mus musculus [8] = assay: Anti-fibrotic effect in CCl4-induced hepatic fibrosis C57BL/6 mouse model assessed as inhibition of serum ALT level at 500 ug/kg, po five times a week for 2 weeks; format: functional, organism-based; conditions: dose 500.0 µg/kg
# Mus musculus [9] = assay: Anti-fibrotic effect in bile duct ligation (BDL) surgery-induced hepatic fibrosis C57BL/6 mouse model assessed as decrease in inflammatory cell infiltration at 500 ug/kg, po five times a week for 2 weeks by Hematoxylin-Eosin (H&E) staining based assay; format: functional, organism-based; conditions: dose 500.0 µg/kg
# Mus musculus [10] = assay: Anti-fibrotic effect in bile duct ligation (BDL) surgery-induced hepatic fibrosis C57BL/6 mouse model assessed as inhibition of Timp-1 expression in liver at 500 ug/kg, po five times a week for 2 weeks by RT-qPCR analysis; format: functional, organism-based; conditions: dose 500.0 µg/kg
# Mus musculus [11] = assay: Anti-fibrotic effect in CCl4-induced hepatic fibrosis C57BL/6 mouse model assessed as inhibition of serum AST level at 500 ug/kg, po five times a week for 2 weeks; format: functional, organism-based; conditions: dose 500.0 µg/kg
# Mus musculus [12] = assay: Anti-fibrotic effect in bile duct ligation (BDL) surgery-induced hepatic fibrosis C57BL/6 mouse model assessed as reduction the lesions at 500 ug/kg, po five times a week for 2 weeks by Masson's Trichrome staining based assay; format: functional, organism-based; conditions: dose 500.0 µg/kg
# [13] = Cytotoxicity against human LX-2 cells by CCK-8 assay; format: toxicity, cell-based
# Mus musculus [14] = assay: Anti-fibrotic effect in bile duct ligation (BDL) surgery-induced hepatic fibrosis C57BL/6 mouse model assessed as inhibition of serum total bile acid (TBA) level at 500 ug/kg, po five times a week for 2 weeks; format: functional, organism-based; conditions: dose 500.0 µg/kg
# Mus musculus [15] = assay: Anti-fibrotic effect in bile duct ligation (BDL) surgery-induced hepatic fibrosis C57BL/6 mouse model assessed as inhibition of collagen deposition in liver at 500 ug/kg, po five times a week for 2 weeks by Masson's Trichrome […] staining based assay; format: functional, organism-based; conditions: dose 500.0 µg/kg
# Mus musculus [16] = assay: Anti-fibrotic effect in CCl4-induced hepatic fibrosis C57BL/6 mouse model assessed as inhibition of collagen deposition at 500 ug/kg, po five times a week for 2 weeks by Hematoxylin-Eosin (H&E) staining based assay; format: functional, organism-based; conditions: dose 500.0 µg/kg
# Mus musculus [17] = assay: Anti-fibrotic effect in CCl4-induced hepatic fibrosis C57BL/6 mouse model assessed as reduction the lesions at 500 ug/kg, po five times a week for 2 weeks by Masson's Trichrome staining based assay; format: functional, organism-based; conditions: dose 500.0 µg/kg
# Mus musculus [18] = assay: Anti-fibrotic effect in improving CCl4-induced hepatic fibrosis C57BL/6 mouse model assessed as decrease in liver to kidney brightness ratio at 500 ug/kg, po five times a week for 2 weeks by qualitative ultrasound imaging analysis; format: functional, organism-based; conditions: dose 500.0 µg/kg
# [19] = target: T1, Vitamin D3 receptor (Homo sapiens) (UniProt P11473); assay: Agonist activity at Vitamin D receptor in human LX-2 cells assessed as transcriptional activity by measuring induction of CYP24A expression at 0.5 uM by RT-qPCR analysis relative to control; format: cell-based; conditions: filed as agonist
# T1 sequence (whole entry): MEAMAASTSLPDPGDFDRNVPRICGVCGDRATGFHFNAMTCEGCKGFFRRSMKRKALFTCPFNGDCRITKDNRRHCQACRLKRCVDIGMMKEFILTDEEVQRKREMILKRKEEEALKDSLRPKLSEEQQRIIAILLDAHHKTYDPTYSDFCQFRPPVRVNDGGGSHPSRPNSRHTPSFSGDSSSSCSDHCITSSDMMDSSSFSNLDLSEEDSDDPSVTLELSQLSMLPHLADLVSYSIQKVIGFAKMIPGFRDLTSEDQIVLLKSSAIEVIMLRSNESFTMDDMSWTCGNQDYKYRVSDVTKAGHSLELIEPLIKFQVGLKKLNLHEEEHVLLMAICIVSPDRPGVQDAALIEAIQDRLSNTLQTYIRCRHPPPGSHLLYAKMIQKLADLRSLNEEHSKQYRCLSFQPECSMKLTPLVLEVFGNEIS
# [20] = Toxicity in CCl4-induced hepatic fibrosis C57BL/6 mouse model assessed as serum hypercalcemia at 500 ug/kg, po five times a week for 2 weeks by calcium assay kit; format: organism-based; conditions: in vivo, 0.5 mg/kg, 336 h, dose 500 µg/kg
# Mus musculus [21] = assay: Anti-fibrotic effect in bile duct ligation (BDL) surgery-induced hepatic fibrosis C57BL/6 mouse model assessed as inhibition of serum AST level at 500 ug/kg, po five times a week for 2 weeks; format: functional, organism-based; conditions: dose 500.0 µg/kg
# Mus musculus [22] = assay: Anti-fibrotic effect in CCl4-induced hepatic fibrosis C57BL/6 mouse model assessed as reduction the lesions at 500 ug/kg, po five times a week for 2 weeks by Hematoxylin-Eosin (H&E) staining based assay; format: functional, organism-based; conditions: dose 500.0 µg/kg
# Mus musculus [23] = assay: Anti-fibrotic effect in bile duct ligation (BDL) surgery-induced hepatic fibrosis C57BL/6 mouse model assessed as inhibition of serum ALT level at 500 ug/kg, po five times a week for 2 weeks; format: functional, organism-based; conditions: dose 500.0 µg/kg
# Mus musculus [24] = assay: Anti-fibrotic effect in CCl4-induced hepatic fibrosis C57BL/6 mouse model assessed as inhibition of proliferation of fibrous tissue at 500 ug/kg, po five times a week for 2 weeks by Masson's Trichrome […] staining based assay; format: functional, organism-based; conditions: dose 500.0 µg/kg
# Mus musculus [25] = assay: Anti-fibrotic effect in bile duct ligation (BDL) surgery-induced hepatic fibrosis C57BL/6 mouse model assessed as inhibition of fibronectin (Fn) expression in liver at 500 ug/kg, po five times a week for 2 weeks by RT-qPCR analysis; format: functional, organism-based; conditions: dose 500.0 µg/kg
# Mus musculus [26] = assay: Anti-fibrotic effect in improving CCl4-induced hepatic fibrosis C57BL/6 mouse model assessed as uniform liver parenchyma at 500 ug/kg, po five times a week for 2 weeks by qualitative ultrasound imaging analysis; format: functional, organism-based; conditions: dose 500.0 µg/kg
# [27] = target: T1, Vitamin D3 receptor (Homo sapiens); assay: Binding affinity to human full-length Vitamin D receptor assessed as relative binding affinity at 1 uM incubated for 2 hrs by fluorescence polarization based competitive binding assay relative to calcipotriol; conditions: filed as agonist
smiles,measurement,setting,value
OCc1ccc(/C=C/c2ccc(OCCCC(F)(F)F)cc2)cc1CO,Activity,Mus musculus [1],Active
same,Activity,Mus musculus [2],Active
same,Activity,Mus musculus [3],Active
same,Activity,Mus musculus [4],Active
same,Activity,Mus musculus [5],Active
same,Activity,Mus musculus [6],Active
same,Activity,[7],Non-Toxic
same,Activity,Mus musculus [8],Active
same,Activity,Mus musculus [9],Active
same,Activity,Mus musculus [10],Active
same,Activity,Mus musculus [11],Active
same,Activity,Mus musculus [12],Active
same,pIC50,[13],< 4.52
same,Activity,Mus musculus [14],Active
same,Activity,Mus musculus [15],Active
same,Activity,Mus musculus [16],Active
same,Activity,Mus musculus [17],Active
same,Activity,Mus musculus [18],Active
same,Activity,[19],Active
same,Activity,[20],Non-Toxic
same,Activity,Mus musculus [21],Active
same,Activity,Mus musculus [22],Active
same,Activity,Mus musculus [23],Active
same,Activity,Mus musculus [24],Active
same,Activity,Mus musculus [25],Active
same,Activity,Mus musculus [26],Active
same,RBA,[27],51.4%
